Measurements from patent US7714014B2, “Targeting GLI proteins in human cancer by small molecules” (The Regents of the University of California, priority 2005, dated 2010).

Tests used:
[1] = test system: human renal cell carcinoma cell lines 786-O, Caki, and OMRC3; test: Cell survival assay (crystal violet); format: cell-based; conditions: for cell killing: 50 μM
Method: (§1) Typically, the small molecule compounds of the present invention were dissolved in DMSO at a concentration of 30 mM. The small molecule compounds were then tested under cell culture conditions at different concentrations ranging from 0, 10, 30, 50, to 100 uM. To determine cell survival after treatment, the cells were incubated with the small molecule compounds in 6-well plates for about 3 days. After removal of the cell culture medium, 1-ml of 0.5% crystal violet solution (prepared in 20% ethanol and 20% methanol) was added to stain the cells for 5 min. Then the crystal violet solution was rinsed clean with tap water. Cell survival was estimated based on the density of crystal stained plates.
The cell-based cytotoxicity assay described herein was used to determine the effect of small molecule compounds FN1-5 and FN1-8 in the human renal cell carcinoma cell lines 786-O, Caki, and OMRC3. Viability of these cells was analyzed after treatment with 10, 30 and 50 μM FN1-5 or FN1-8.

Colon Cancer HT29 tumor = test: Mouse Xenograft Model (Colon Cancer HT29); format: in vivo
Method: The small molecule compound FN1-8 was tested in vivo in the mouse xenograft model bearing human cancer cells. Briefly, female athymic nude mice strain NCRNU-M (5-10 weeks old, 20-25 grams in weight; Taconic, Germantown, N.Y.) was maintained in pathogen-free conditions. Three human cancer cell lines: NSCLC H460, melanoma LOX, (both showing Gli3 activation), and colon cancer HT29 (no Gli3 activation, as a negative control), were used. Ten mice were used in each group and injected s.c. with 3×10^6 cancer cells in the dorsal area in a volume of 100 μl. After inoculation, human cancer cells were allowed to grow in mice for 7 days to become visible tumor nodules. Animals were then injected with small molecule compound FN1-8 at a dose of 50 mg/kg body weight (1 mg/mouse per day). DMSO alone was used as control. The compounds and controls were adjusted in 40 ul volume for i.p. injection in the abdomens of the mice. […] Tumor size was measured every three days, and tumor volumes were calculated using width (x) and length (y) (x^2y/2, where x<y). […]
In vivo efficacy study of small molecule compound FN1-8 were also performed using a negative Mouse Xenograft Model (Colon Cancer HT29). […] Tumor size was measured with a caliper every three days. Tumor volumes were calculated using the equation x^2y (where x<y). […]

[2] = test system: primary cultured human mesothelioma cells; test: Cell survival assay (crystal violet); format: cell-based; conditions: for cell killing effect: 50 and 100 μM, 3 days
Method: (§2) Fresh cancer tissue and adjacent normal tissue from patients undergoing curative primary resection of their tumors were collected at the time of surgery (IRB approval H8714-15319-040), and immediately snap-frozen in liquid nitrogen. These tissue samples were kept at −170° C. in a liquid nitrogen freezer until further use. Primary tissue cultures were prepared as follows: Fresh cancer tissue was obtained with consent from patients undergoing resection, cut into small pieces (1-2 mm in diameter), and then digested with Collagenase A (Roche Applied Science, Indianapolis, Ind.) at room temperature for 2 hours according to manufacture's protocol. Single cells from the digestion were spun down and the cell pellets were washed twice using RPMI 1640 supplemented with 10% fetal bovine serum, penicillin (100 IU/ml) and streptomycin (100 μg/ml). Then, the cells were resuspended in the same medium and cultured in 6-well plates at 37° C. in a humid incubator with 5% CO2 until they were ready for further treatments.
as §1
Next, the effect of different small molecule compounds on primary cultured human mesothelioma cells freshly made from tissue samples was examined. The primary cultures were plated in 6-well plates as described herein and incubated with 50 and 100 μM of each compound (FN1-5, FN1-7, FN1-8, and FN3-5; stocks were dissolved in DMSO at 30 mM) for 3 days. […] (FIG. 8).

[3] = test system: Tcf-mediated gene transcription (canonical Wnt signaling) in colon cancer cell line SW480; test: TOPFLASH (TOP/FOP) assay; format: cell-based, human
Method: Cells were plated in 12-well plates. The TOPFLASH or FOPFLASH reporter plasmid (Upstate; Charlottesville, Va.) was transfected transiently into cells as described above. Tcf-mediated gene transcription was determined by the ratio of pTOPFLASH:pFOPFLASH luciferase activity, each was normalized to luciferase activities of the pRL-TK reporter (co-transfected internal control). All experiments were performed in triplicate, and repeated three times.
Regulation of TOP/FOP activity by the same compounds as described above was also analyzed in the colon cancer cell line SW480.

[4] = test system: Primary cultured NSCLC cells; test: Apoptosis analysis (Annexin V FITC, flow cytometry); format: cell-based, human; conditions: 3 days
Method: as §2
Apoptosis was analyzed by using an Annexin V FITC Apoptosis Detection Kit (Biosource, Camarillo, Calif.), according to the manufacturer's protocol. After treatment with different small molecule compounds at various concentrations for about 3 days, cells were harvested by trypsinization, stained and immediately analyzed by flow cytometry (FACScan; Decton Dickinson, Franklin Lake, N.J.). Early apoptotic cells with exposed phosphatidylserine but intact cell membranes will bind to Annexin V-FITC, but not propidium iodide (PI). Cells in necrotic or late apoptotic stages will be labeled with both Annexin V-FITC and PI. “% apoptotic cells” or “% apoptosis” refers to the combined early and late apoptotic cells.
Flow cytometry was also used to examine apoptosis induced by molecule compounds of the invention. in primary cultured NSCLC cells freshly made from tissue samples. […] For example, app.

[5] = test system: mesothelioma cell lines H290 and 211H; test: Cell survival assay (crystal violet); format: cell-based, human; conditions: 30 μM, 3 days
Method: as §1
Cell killing was also tested using mesothelioma cell lines H290, 211H, MS1 and REN and different doses of the small molecule compounds FN1-5 and FN1-8. Cells were plated in 6-well plates and incubated with 1, 10, and 30 μM of each compound for 3 days, as described herein. […] (data not shown).

| Structure (SMILES) | cell killing potency compared with FN1-5 [1] | cell killing [1] | tumor growth (Colon Cancer HT29 tumor; 50 mg/kg i.p. daily for 2×6 days) | cell killing effect [2] | cell killing potency compared with FN1-5 ([2]; same dose) | reduction of TOP/FOP activity [3] | % of apoptotic cells ([4]; 10 μM) [%] | % of apoptotic cells ([4]; 30 μM) [%] | % of apoptotic cells ([4]; 50 μM) [%] | cell killing [5] | tumor weight (Colon Cancer HT29 tumor; 15 mg/kg daily 2×6 days then 30 mg/kg daily 1×6 days i.p., 43 days after inoculation) | TOP/FOP activity [3] |
| --- | --- | --- | --- | --- | --- | --- | --- | --- | --- | --- | --- | --- |
| O=C(NCCc1ccc(O)cc1)C1C(c2ccccc2)=NN(c2ccccc2)C1c1ccccc1 (centres unmarked) [FN1-8, N-(2-(4-Hydroxyphenyl)ethyl)-1,3,5-triphenyl-4,5-dihydro-pyrazole-4-carboxyamide] | more potent | dramatic cell killing | not affected | Dramatic cell killing effect | more potent than FN1-5 | about 32% | 9.8 | 13.1 | 58.0 | Dramatic cell killing |  |  |
| O=C(NCCCCCO)C1C(c2ccccc2)=NN(c2ccccc2)C1c1ccccc1 (centres unmarked) [FN1-5, N-(5-Hydroxypentyl)-1,3,5-triphenyl-4,5-dihydro-pyrazole-4-carboxyamide] |  | dramatic cell killing |  | Dramatic cell killing effect |  |  |  | 11.2 | 19.8 | Dramatic cell killing | slightly decreased the tumor weight | lesser effect |
